Data set [1] deals with Johnsongrass. Briefly: Test Example 4, pre-emergence treatment, herbicidal activity. Note: ranges in brackets are in %. The class given is in vivo, Sorghum halepense. To be noted: 20 days. How it is done:
(§1) The application of the tetrahydrophthalimides (I) as herbicides will be illustratively shown in the following Examples wherein the phytotoxicity to cultivated plants and the herbicidal activity on weeds were evaluated as follows: the aerial parts of the test plants were cut off and weighed (fresh weight); the percentage of the fresh weight of the treated plant to that of the untreated plant was calculated with the latter fresh weight taken as 100; and the crop damage and the herbicidal activity were evaluated by the standard given in the table below. The rating values of phytotoxicity, 0 and 1, and those of herbicidal effect, 5 and 4, are generally regarded as satisfactory to protect cultivated plants and control weeds, respectively. The rating values in the paddy field test alone were calculated from the dry weight of the test plants.
(§2) Plastic beakers (diameter, 10 cm; height, 10 cm) were filled with upland field soil, and the seeds of corn, cotton and soybean and the seeds of morningglory, velvetleaf, Johnsongrass and green foxtail were separately sown in the beakers. A designed amount of the test compound was sprayed over the top by means of a small hand sprayer. After the spraying, the test plants were grown for 20 days in the greenhouse, and herbicidal activity and phytotoxicity were examined. In this pre-emergence treatment, the test compounds were formulated into an emulsifiable concentrate according to Preparation Example 2 and applied at a spray volume of 5 liters per are by dispersing it in water with the addition of a spreading agent.

For data set [2], the system named is tall morningglory. Briefly: Test Example 3, soil surface spraying, herbicidal activity. Note: ranges in brackets are in %. The class given is in vivo, Ipomoea purpurea. Conditions: 20 days. The method, then:
as §1
(§3) Plastic trays (35 cm×25 cm×15 cm) were filled with upland field soil, and the seeds of tall morningglory, velvetleaf and sicklepod and the seeds of corn were sown therein. A designed amount of the test compounds formulated into a wettable powder according to Preparation Example 1 was dispersed in water and applied by spraying at a spray volume of 5 liters per are to the whole surface of the soil. After the spraying, the test plants were placed in a greenhouse and grown for 20 days, and herbicidal activity and phytotoxicity were examined.

The subject of data set [3] is velvetleaf. Briefly: Test Example 4, pre-emergence treatment, herbicidal activity. Note: ranges in brackets are in %. The class given is in vivo, Abutilon theophrasti. To be noted: 20 days. The method, then: as §1, §2
The test system of data set [4] is green foxtail. The description is as above. It counts as in vivo, Setaria viridis. To be noted: 20 days. How it is done:
as §1, §2

The test system of data set [5] is morningglory. The description is as above. It counts as in vivo. Conditions: 20 days. How it is done:
as §1, §2

In data set [6] the test system is velvetleaf. Briefly: Test Example 1, foliar treatment, herbicidal activity. It counts as in vivo, Abutilon theophrasti. To be noted: 3 weeks. How it is done:
as §1
(§4) Plastic beakers (diameter, 10 cm; height, 10 cm) were filled with upland field soil, and the seeds of corn, barnyardgrass, wild oat, wild mustard and velvetleaf were separately sown in the beakers and grown for 2 weeks in the greenhouse. A designed amount of the test compound was sprayed to the foliage of the test plants by means of a small hand sprayer. After the spraying, the test plants were further grown for 3 weeks in the greenhouse, and herbicidal activity was examined. In this foliar treatment, the test compounds were formulated into an emulsifiable concentrate according to Preparation Example 2 and applied at a spray volume of 5 liters per are by dispersing it in water with the addition of a spreading agent.

The test system of data set [7] is sicklepod. Briefly: Test Example 3, soil surface spraying, herbicidal activity. Note: ranges in brackets are in %. The class given is in vivo, Cassia obtusifolia. Conditions: 20 days. The method, then: as §1, §3
For data set [8], the system named is barnyardgrass. Briefly: Test Example 1, foliar treatment, herbicidal activity. It counts as in vivo, Echinochloa crus-galli. Conditions: 3 weeks. The method, then:
as §1, §4

For data set [9], the system named is corn. Description: Test Example 3, soil surface spraying, phytotoxicity to corn. Note: ranges in brackets are in %. It counts as in vivo. To be noted: 20 days. How it is done:
as §1, §3

Data set [10] has as its system velvetleaf. Description: Test Example 3, soil surface spraying, herbicidal activity. Note: ranges in brackets are in %. The class given is in vivo, Abutilon theophrasti. To be noted: 20 days. The method, then:
as §1, §3

The test system of data set [11] is corn. Description: Test Example 4, pre-emergence treatment, phytotoxicity to corn. Note: ranges in brackets are in %. The class given is in vivo. To be noted: 20 days. The method, then:
as §1, §2

The test system of data set [12] is corn. Description: Test Example 1, foliar treatment, phytotoxicity to corn. Note: ranges in brackets are in %. It counts as in vivo. Conditions: 3 weeks. The method, then:
as §1, §4

For data set [13], the system named is wild mustard. Description: Test Example 1, foliar treatment, herbicidal activity. It counts as in vivo, Brassica kaber. Conditions: 3 weeks. The method, then: as §1, §4
For data set [14], the system named is wild oat. Described as above. It counts as in vivo, Avena fatua. Conditions: 3 weeks. How it is done: as §1, §4
For data set [15], the system named is cotton. Description: Test Example 4, pre-emergence treatment, phytotoxicity to cotton. Note: ranges in brackets are in %. It counts as in vivo. Conditions: 20 days. The method, then: as §1, §2
Data set [16] relates to soybean. Description: Test Example 4, pre-emergence treatment, phytotoxicity to soybean. Note: ranges in brackets are in %. It counts as in vivo. Conditions: 20 days. How it is done: as §1, §2

The structures appear in SMILES notation.
Throughout, for Herbicidal activity, Barnyardgrass: ranges in brackets are in %.
Throughout, for Herbicidal activity, Green foxtail: ranges in brackets are in %.
Throughout, for Herbicidal activity, Morningglory: ranges in brackets are in %.
Throughout, for Herbicidal activity, Velvetleaf: ranges in brackets are in %.
Throughout, for Herbicidal activity, Wild cat: ranges in brackets are in %.

With `CCCOc1cc(N2C(=O)C3=C(CCCC3)C2=O)c(F)cc1Cl` [compound 3], the “Herbicidal activity, Johnsongrass” value in [1] (2.5 g/are) is 4 (1-10); in data set [1] (10 g/are), 5 (0). For the same compound, the “Herbicidal activity, Tall morningglory” value in data set [2] (5 g/are) is on record as 4 (1-10); in data set [2] (10 g/are), 5 (0). Moreover, the “Herbicidal activity, Velvetleaf” value in data set [3] (2.5 g/are), in [3] (10 g/are), in [6] (1.25 g/are), in data set [6] (5 g/are), in data set [10] (5 g/are) and in [10] (10 g/are) was 5 (0) in each case. The “Herbicidal activity, Green foxtail” value in [4] (2.5 g/are) is on record as 4 (1-10); in [4] (10 g/are), 5 (0). The “Herbicidal activity, Morningglory” value in data set [5] (2.5 g/are) and in data set [5] (10 g/are) was 4 (1-10) each time. In addition, the “Herbicidal activity, Sicklepod” value is reported as 4 (1-10) in data set [7] (5 g/are) and 5 (0) in [7] (10 g/are). Also, the “Herbicidal activity, Barnyardgrass” value in [8] (1.25 g/are) is reported as 4 (1-10); in data set [8] (5 g/are) it was 5 (0). The “Phytotoxicity, Corn” value was 0 (100) in [9] (5 g/are); 0 (100) in data set [9] (10 g/are); 0 (100) in data set [11] (2.5 g/are); 1 (90-99) in data set [11] (10 g/are); 0 (100) in data set [12] (1.25 g/are); 1 (90-99) in [12] (5 g/are). Besides, the “Herbicidal activity, Wild mustard” value in data set [13] (1.25 g/are) and in [13] (5 g/are) was 5 (0) each time. Moreover, the “Herbicidal activity, Wild cat” value in [14] (1.25 g/are) was 4 (1-10); in data set [14] (5 g/are), 5 (0).

For the compound `CCCCOc1cc(N2C(=O)C3=C(CCCC3)C2=O)c(F)cc1Cl` [compound 6], the “Herbicidal activity, Tall morningglory” value in data set [2] (5 g/are) and in data set [2] (10 g/are) was 4 (1-10) in each case. Moreover, the “Herbicidal activity, Velvetleaf” value in data set [6] (1.25 g/are), in data set [6] (5 g/are), in [10] (5 g/are) and in data set [10] (10 g/are) was 5 (0) each time. Besides, the “Herbicidal activity, Sicklepod” value in data set [7] (5 g/are) and in [7] (10 g/are) was 4 (1-10) throughout. Besides, the results for the “Herbicidal activity, Barnyardgrass” value in data set [8] (1.25 g/are) and in data set [8] (5 g/are) were 3 (11-20) and 4 (1-10), respectively. The “Phytotoxicity, Corn” value in data set [9] (5 g/are), in data set [9] (10 g/are), in data set [12] (1.25 g/are) and in [12] (5 g/are) was 0 (100) in each case. In addition, the “Herbicidal activity, Wild mustard” value in [13] (1.25 g/are) was 4 (1-10); in data set [13] (5 g/are) it was 5 (0). For the same compound, the “Herbicidal activity, Wild cat” value in data set [14] (1.25 g/are) is recorded as 1 (41-60); in data set [14] (5 g/are) it was 3 (11-20).

In the case of `CCOc1cc(N2C(=O)C3=C(CCCC3)C2=O)c(F)cc1Br` [compound 13], the “Herbicidal activity, Johnsongrass” value was 4 (1-10) in data set [1] (2.5 g/are) and 5 (0) in data set [1] (10 g/are). The “Herbicidal activity, Velvetleaf” value in data set [3] (2.5 g/are) is reported as 4 (1-10); in data set [3] (10 g/are), 5 (0); in data set [6] (1.25 g/are), 5 (0); in [6] (5 g/are), 5 (0). For the same compound, the figures for the “Herbicidal activity, Green foxtail” value in data set [4] (2.5 g/are) and in [4] (10 g/are) were 4 (1-10) and 5 (0), respectively. For the same compound, the “Herbicidal activity, Morningglory” value in [5] (10 g/are) is reported as 5 (0). Moreover, the “Phytotoxicity, Cotton” value in data set [15] (2.5 g/are) is listed as 0 (100); in data set [15] (10 g/are) it was 1 (90-99). The “Herbicidal activity, Barnyardgrass” value in data set [8] (1.25 g/are) is recorded as 2 (21-40); in data set [8] (5 g/are), 5 (0). Besides, the “Phytotoxicity, Corn” value is recorded as 0 (100) in data set [11] (2.5 g/are), 0 (100) in data set [11] (10 g/are), 0 (100) in data set [12] (1.25 g/are) and 1 (90-99) in data set [12] (5 g/are). Besides, the “Herbicidal activity, Wild mustard” value in [13] (1.25 g/are) and in data set [13] (5 g/are) was 5 (0) in each case. The “Herbicidal activity, Wild cat” value in [14] (1.25 g/are) is given as 2 (21-40); in data set [14] (5 g/are), 5 (0). Moreover, the “Phytotoxicity, Soybean” value in data set [16] (2.5 g/are) was 0 (100); in data set [16] (10 g/are) it was 1 (90-99).

As to `CCCOc1cc(N2C(=O)C3=C(CCCC3)C2=O)c(F)cc1Br` [compound 14], the “Herbicidal activity, Johnsongrass” value in [1] (2.5 g/are) and in data set [1] (10 g/are) was 4 (1-10) each time. For the same compound, the “Herbicidal activity, Velvetleaf” value in data set [3] (2.5 g/are) was 4 (1-10); in data set [3] (10 g/are) it was 5 (0); in data set [6] (1.25 g/are), 5 (0); in data set [6] (5 g/are), 5 (0). For the same compound, the “Herbicidal activity, Green foxtail” value in data set [4] (2.5 g/are) and in data set [4] (10 g/are) was 4 (1-10) in each case. For the same compound, the “Herbicidal activity, Morningglory” value in [5] (10 g/are) was 4 (1-10). The “Phytotoxicity, Cotton” value in data set [15] (2.5 g/are) and in data set [15] (10 g/are) was 0 (100) throughout. The “Herbicidal activity, Barnyardgrass” value in data set [8] (1.25 g/are) is 3 (11-20); in data set [8] (5 g/are), 5 (0). For the same compound, the “Phytotoxicity, Corn” value in [11] (2.5 g/are) is listed as 0 (100); in [11] (10 g/are), 0 (100); in data set [12] (1.25 g/are), 0 (100); in data set [12] (5 g/are), 1 (90-99). The “Herbicidal activity, Wild mustard” value in [13] (1.25 g/are) and in data set [13] (5 g/are) was 5 (0) each time. Moreover, the figures for the “Herbicidal activity, Wild cat” value in data set [14] (1.25 g/are) and in data set [14] (5 g/are) were 3 (11-20) and 5 (0), respectively. The entries for the “Phytotoxicity, Soybean” value in data set [16] (2.5 g/are) and in data set [16] (10 g/are) were 0 (100) and 1 (90-99), respectively.

Regarding `CCC(C)Oc1cc(N2C(=O)C3=C(CCCC3)C2=O)c(F)cc1Br` (stereo not drawn) [compound 15], the “Herbicidal activity, Johnsongrass” value in [1] (2.5 g/are) and in [1] (10 g/are) was 4 (1-10) each time. Further, the “Herbicidal activity, Velvetleaf” value is 4 (1-10) in data set [3] (2.5 g/are), 5 (0) in [3] (10 g/are), 5 (0) in data set [6] (1.25 g/are) and 5 (0) in data set [6] (5 g/are). The “Herbicidal activity, Green foxtail” value in data set [4] (10 g/are) is reported as 4 (1-10). The “Herbicidal activity, Morningglory” value in data set [5] (10 g/are) is reported as 5 (0). In addition, the “Phytotoxicity, Cotton” value is 0 (100) in data set [15] (2.5 g/are) and 1 (90-99) in data set [15] (10 g/are). Also, the results for the “Herbicidal activity, Barnyardgrass” value in [8] (1.25 g/are) and in data set [8] (5 g/are) were 2 (21-40) and 5 (0), respectively. In addition, the “Phytotoxicity, Corn” value in data set [11] (2.5 g/are) is on record as 0 (100); in [11] (10 g/are) it was 0 (100); in [12] (1.25 g/are), 0 (100); in data set [12] (5 g/are), 1 (90-99). Besides, the “Herbicidal activity, Wild mustard” value in data set [13] (1.25 g/are) and in data set [13] (5 g/are) was 5 (0) each time. Further, the figures for the “Herbicidal activity, Wild cat” value in [14] (1.25 g/are) and in data set [14] (5 g/are) were 2 (21-40) and 5 (0), respectively. The “Phytotoxicity, Soybean” value in data set [16] (2.5 g/are) was 0 (100); in [16] (10 g/are) it was 1 (90-99).
